For the test, the system named is P388 leukemia ip, CD2F1 mice, survival T/C. As to the kind of experiment: NCI In Vivo Anticancer Drug Screen. Data for tumor model P388 Leukemia (intraperitoneal) in CD2F1 (CDF1) mice. To be noted: endpoint: median survival time, higher = longer survival. The method, boiled down: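 Mice carrying the transplanted tumor received test compound or vehicle. Survival was recorded in each group, and the value is the treated-group measurement divided by that of the vehicle-treated control group.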

Setting [1] is: dose: 25.0 mg/kg/injection, schedule: Q01DX005 (ip), vehicle: Klucel (hydroxypropylcellulose) (HPC).
Setting [2] is: dose: 50.0 mg/kg/injection, schedule: Q01DX005 (ip), vehicle: Klucel (hydroxypropylcellulose) (HPC).
Where [3] appears, read: dose: 60.0 mg/kg/injection, schedule: Q01DX005 (ip), vehicle: saline with Tween-80.
Where [4] appears, read: dose: 25.0 mg/kg/injection, schedule: Q01DX009 (ip), vehicle: Klucel (hydroxypropylcellulose) (HPC).
[5] abbreviates: dose: 50.0 mg/kg/injection, schedule: Q01DX009 (ip), vehicle: Klucel (hydroxypropylcellulose) (HPC).
[6] abbreviates: dose: 100.0 mg/kg/injection, schedule: Q01DX009 (ip), vehicle: Klucel (hydroxypropylcellulose) (HPC).
Setting [7] is: dose: 200.0 mg/kg/injection, schedule: Q01DX009 (ip), vehicle: Klucel (hydroxypropylcellulose) (HPC).
Setting [8] is: dose: 120.0 mg/kg/injection, schedule: Q01DX005 (ip), vehicle: saline with Tween-80.
Setting [9] is: dose: 25.0 mg/kg/injection, schedule: Q01DX009 (ip), vehicle: saline with Tween-80.
The mark [10] stands for this setting: dose: 50.0 mg/kg/injection, schedule: Q01DX009 (ip), vehicle: saline with Tween-80.
[11] abbreviates: dose: 200.0 mg/kg/injection, schedule: Q01DX009 (ip), vehicle: saline with Tween-80.
Where [12] appears, read: dose: 50.0 mg/kg/injection, schedule: Q01DX009 (ip), vehicle: saline.
Where [13] appears, read: dose: 100.0 mg/kg/injection, schedule: Q01DX009 (ip), vehicle: saline.
[14] abbreviates: dose: 200.0 mg/kg/injection, schedule: Q01DX009 (ip), vehicle: saline.
Where [15] appears, read: dose: 100.0 mg/kg/injection, schedule: Q01DX009 (ip), vehicle: saline with Tween-80.
[16] abbreviates: dose: 240.0 mg/kg/injection, schedule: Q01DX005 (ip), vehicle: saline with Tween-80.

Molecules are shown by their SMILES. Several values for one entry are separate records, joined by “and”; a condition that tells them apart may be missing. Equal entries are not always repeated. Inconclusive results and toxic doses are left out.

For the compound `Cc1cccc(N=Nc2c(C)nn(C(N)=S)c2C)c1C`, the T/C is 90 % of control under setting [1]; 94 % of control under setting [2]; 106 % of control (dose: 100.0 mg/kg/injection, schedule: Q01DX005 (ip), vehicle: Klucel (hydroxypropylcellulose) (HPC)).

Consider `CC1COS(=O)(=O)CS(=O)(=O)O1` (stereo not drawn), for which the T/C under setting [3] was 100 % of control.

Take `O=C(NNc1nc(CCl)cs1)c1ccccc1Cl`: the T/C runs as follows: (dose: 12.5 mg/kg/injection, schedule: Q01DX009 (ip), vehicle: Klucel (hydroxypropylcellulose) (HPC)) 106 % of control; under setting [4], 103 % of control and 111 % of control; under setting [5], 103 % of control and 113 % of control; under setting [6], 103 % of control and 107 % of control; under setting [7], 94 % of control.

In the case of `COc1cc(C2c3cc4c(cc3OC(=O)C2C(C)=O)OCO4)cc(OC)c1OC` (stereo not drawn), the T/C reads like this: (dose: 30.0 mg/kg/injection, schedule: Q01DX005 (ip), vehicle: saline with Tween-80) 89 % of control and 90 % of control; under setting [3], 89 % of control (2×) and 93 % of control; under setting [8], 107 % of control and 110 % of control.

Regarding `CN(C)c1nc(O)c(N=O)c(=O)[nH]1`, the T/C by setting is: (dose: 50.0 mg/kg/injection, schedule: Q04DX002 (ip), vehicle: suspension in saline) 100 % of control; (dose: 100.0 mg/kg/injection, schedule: Q04DX002 (ip), vehicle: suspension in saline) 107 % of control; (dose: 200.0 mg/kg/injection, schedule: Q04DX002 (ip), vehicle: suspension in saline) 108 % of control.

`O=C(Nc1ccccc1Cl)Oc1ccc(-c2ccccc2)cc1Br`: the T/C was 111 % of control under setting [9]; 121 % of control under setting [10]; 104 % of control and 95 % of control under setting [11].

As for `CC[C@@]1(O)C[C@H]2CN(CCc3c([nH]c4ccccc34)[C@@](C(=O)OC)(c3cc4c(cc3OC)N[C@H]3[C@@](O)(C(=O)OC)[C@H](OC(C)=O)[C@]5(CC)C=CCN6CC[C@]43[C@@H]65)C2)C1`, for the setting “dose: 16.0 mg/kg/injection, schedule: Q01DX001 (ip), vehicle: water”, the T/C was 153 % of control and 164 % of control.

As for `Cn1c(-c2ccccc2)c(COC(=O)NC2CCCCC2)c(COC(=O)NC2CCCCC2)c1-c1ccc(Cl)cc1`, the T/C (dose: 3.13 mg/kg/injection, schedule: Q01DX009 (ip), vehicle: distilled water + Tween-80) is 109 % of control; the T/C (dose: 6.25 mg/kg/injection, schedule: Q01DX009 (ip), vehicle: distilled water + Tween-80) was 105 % of control; the T/C (dose: 50.0 mg/kg/injection, schedule: Q01DX009 (ip), vehicle: distilled water + Tween-80) is 178 % of control; the T/C (dose: 75.0 mg/kg/injection, schedule: Q01DX009 (ip), vehicle: distilled water + Tween-80) is 175 % of control.

For the compound `CSc1nc(-c2ccccc2)cc(=O)[nH]1`, the T/C by setting is: under setting [4], 106 % of control; under setting [5], 118 % of control; under setting [12], 102 % of control; under setting [6], 112 % of control; under setting [13], 108 % of control; under setting [7], 94 % of control. The T/C under setting [14] is 102 % of control.

With `COc1ccc(C2=C(Cl)C(=O)N(c3ccccc3Cl)C(=O)C2(Cl)Cl)cc1`, the T/C reads like this: (dose: 100.0 mg/kg/injection, schedule: Q04DX002 (ip), vehicle: Klucel (hydroxypropylcellulose) (HPC)) 105 % of control; (dose: 200.0 mg/kg/injection, schedule: Q04DX002 (ip), vehicle: Klucel (hydroxypropylcellulose) (HPC)) 112 % of control; (dose: 400.0 mg/kg/injection, schedule: Q04DX002 (ip), vehicle: Klucel (hydroxypropylcellulose) (HPC)) 113 % of control.

In the case of `C1=NOC2c3ccc4ccccc4c3CCC12` (stereo not drawn), the T/C is, setting by setting: under setting [6], 100 % of control; under setting [7], 95 % of control; (dose: 400.0 mg/kg/injection, schedule: Q01DX009 (ip), vehicle: Klucel (hydroxypropylcellulose) (HPC)) 100 % of control.

On to `O=S(=O)(O)C(I)S(=O)(=O)O`, for which the T/C was 91 % of control under setting [12] and 94 % of control under setting [13].

For `CSc1nc(N)c(C(=O)c2sc(SC)nc2N)s1`, the T/C is, setting by setting: (dose: 12.5 mg/kg/injection, schedule: Q01DX005 (ip), vehicle: Klucel (hydroxypropylcellulose) (HPC)) 100 % of control; under setting [1], 92 % of control; under setting [2], 90 % of control and 97 % of control.

Regarding `Cn1c(=O)c2cn[nH]c2n(C)c1=O`, the T/C was 104 % of control under setting [5], 100 % of control under setting [6] and 96 % of control under setting [7].

Turning to `CCCCCCCCCCCCCCCc1cc(O)c(CC=C(C)C)c(=O)o1` (tested in a mixture with another compound), the T/C runs as follows: (dose: 82.5 mg/kg/injection, schedule: Q01DX005 (ip), vehicle: Klucel (hydroxypropylcellulose) (HPC)) 98 % of control; (dose: 165.0 mg/kg/injection, schedule: Q01DX005 (ip), vehicle: Klucel (hydroxypropylcellulose) (HPC)) 97 % of control; (dose: 330.0 mg/kg/injection, schedule: Q01DX005 (ip), vehicle: Klucel (hydroxypropylcellulose) (HPC)) 105 % of control.

Regarding `O=S(=O)(O)c1ccccc1N=Nc1ccc(N(CCCl)CCCl)cc1`, under setting [15], the T/C is 156 % of control.

In the case of `CCCSCC(C)C`, the T/C under setting [10] is 100 % of control, the T/C under setting [15] was 100 % of control and the T/C under setting [11] was 109 % of control.

As to `O=C1C2=C(C(=O)c3ncccc31)C1C=CC2CC1` (stereo not drawn), the T/C is, setting by setting: (dose: 25.0 mg/kg/injection, schedule: Q01DX005 (ip), vehicle: DMSO) 100 % of control; (dose: 50.0 mg/kg/injection, schedule: Q01DX005 (ip), vehicle: DMSO) 100 % of control; (dose: 50.0 mg/kg/injection, schedule: Q01DX005 (ip), vehicle: Klucel + Tween-80) 102 % of control; (dose: 100.0 mg/kg/injection, schedule: Q01DX005 (ip), vehicle: DMSO) 104 % of control; (dose: 100.0 mg/kg/injection, schedule: Q01DX005 (ip), vehicle: Klucel + Tween-80) 96 % of control.

On to `CC1=C(C)CP(=O)(c2ccccc2)C1`, for which the T/C was 96 % of control (dose: 25.0 mg/kg/injection, schedule: Q01DX009 (ip), vehicle: saline); 93 % of control under setting [12]; 95 % of control under setting [13]; 95 % of control under setting [14].

`COCOc1c(OC)c(C2(O)C(=O)N(C)c3ccccc32)c(OCOC)c(OC)c1C1(O)C(=O)N(C)c2ccccc21` (stereo not drawn): the T/C under setting [3] is 100 % of control, the T/C under setting [8] was 89 % of control and the T/C under setting [16] was 88 % of control.

Regarding `CCCCCCCCCCCC1=C(O)C(=O)C=C(O)C1=O`, the T/C by setting is: (dose: 6.25 mg/kg/injection, schedule: Q01DX009 (ip), vehicle: saline with Tween-80) 101 % of control; (dose: 12.5 mg/kg/injection, schedule: Q01DX009 (ip), vehicle: saline with Tween-80) 106 % of control; under setting [9], 102 % of control.

In the case of `CN(C)CC1CCc2c(ccc3ccccc23)C1=O` (stereo not drawn), the T/C (dose: 12.5 mg/kg/injection, schedule: Q01DX005 (ip), vehicle: saline with Tween-80) is 100 % of control; the T/C (dose: 25.0 mg/kg/injection, schedule: Q01DX005 (ip), vehicle: saline with Tween-80) was 103 % of control; the T/C (dose: 50.0 mg/kg/injection, schedule: Q01DX005 (ip), vehicle: saline with Tween-80) is 100 % of control; the T/C (dose: 100.0 mg/kg/injection, schedule: Q01DX005 (ip), vehicle: saline with Tween-80) was 104 % of control.

For `CC(C)=NOC1CCCCC1OS(=O)(=O)c1ccc(C)cc1` (stereo not drawn), the T/C runs as follows: under setting [10], 94 % of control; under setting [15], 95 % of control; under setting [11], 110 % of control.

Regarding `C[C@@]1(CO)CCc2c(c3ccccc3oc2=O)O1`, the T/C under setting [3] was 94 % of control, the T/C under setting [8] is 92 % of control and the T/C under setting [16] was 90 % of control.

With `Nc1nc(N)c(N=O)c(Nc2ccc(Cl)c(Cl)c2)n1`, the T/C was 100 % of control (dose: 100.0 mg/kg/injection, schedule: Q04DX003 (ip), vehicle: saline with Tween-80) and 90 % of control (dose: 200.0 mg/kg/injection, schedule: Q04DX003 (ip), vehicle: saline with Tween-80).

Source of the values: PubChem BioAssay AID330 (DTP/NCI, 2004).
